The values below come from patent US11339151B2, “Aliphatic acid amide derivative” (Sumitomo Dainippon Pharma Co., Ltd., priority 2019, dated 2022).

Data set [1] concerns the target T1, human 5-HT7 receptor (Homo sapiens (Human), UniProt P34969). As to the kind of experiment: Test 2: antagonist activity for human 5-HT7 receptor (aequorin luminescence, CHO-K1 cells). The data set is classed as cell-based. Conditions: Gα16. In short, it runs like this: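 Antagonism was measured by aequorin luminescence in CHO-K1 cells transiently expressing the receptor together with Gα16. Compounds in DMSO were added after the cells rested 2 h at room temperature. The 10 μmol/L endogenous-ligand response defined 100% for calculating inhibitory activity.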

The nature of data set [2]: Test 9: intracerebral transferability in rats. It is filed as in vivo. Particulars: brain and plasma (unbound); SD or WKY rat, subcutaneous or oral, 0.5, 1 or 2 hours; unbound brain/plasma ratio.
Procedure: In this test, intracerebral transferability of the present compound was evaluated by the following method. The present compounds were subcutaneously administered as a solution in saline, or orally administered as a suspension in methyl cellulose to a 7-week-old SD or WKY rat. Plasma and brain were collected on 0.5 hour, 1 hour, or 2 hours after the administration in order to measure the drug concentrations in plasma and brain by LC-MS.
Binding rates of the present compound to plasma and brain protein were measured by equilibrium dialysis method.
Kp,uu,brain (unbound drug concentration ratio between brain/plasma) can be calculated by applying the compound concentrations in plasma and brain and the binding rates to plasma and brain protein obtained from the above test into the following formula. Kp,uu,brain=(Compound concentration in brain×(100−Binding rate to brain protein (%))/100)/(Compound concentration in plasma×(100−Binding rate to plasma protein (%))/100)
Another data set concerns the target hERG channel (Homo sapiens (Human), UniProt Q12809). The experiment in a line: Test 5: inhibitory activity for hERG channel (whole cell patch clamp, hERG-CHO cells). It is filed as cell-based. In short, it runs like this:
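Automated whole-cell patch clamp on CHO cells stably expressing hERG (IKr), pulses every 15 s. Each compound applied at 4 incremental concentrations. Value based on mean peak tail current from the last 3 stimulations at each concentration.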
A general note: Block of hERG is tested as a sign of cardiac risk.

In data set [3] the target is T2, human 5-HT2A receptor (Homo sapiens (Human), UniProt P28223). The experiment in a line: Test 2: antagonist activity for human 5-HT2A receptor (aequorin luminescence, CHO-K1 cells). The data set is classed as cell-based. Particulars: Gα16. The protocol: Test 2: Evaluation of Antagonist Activity for Human 5-HT2A Receptor and Human 5-HT7 Receptor
Aequorin, Gα 16 protein, and each receptor were transiently expressed in CHO-K1 cells (Chinese hamster ovary). The cells were cultivated in a CO2 incubator at 37° C. overnight, seeded into a 384-well plate, and stood at room temperature for 2 hours. Each compound dissolved in DMSO was added thereto, and changes in luminescence were measured by FDSS/μCELL drug discovery screening support system (Hamamatsu Photonics K.K.). As for antagonist activity, inhibitory activity of each compound was calculated by setting the luminescence level of wells to which 10 μmol/L endogenous ligand was added as 100%.

Data set [4] has as its target T1, human 5-HT7 receptor. As to the kind of experiment: Test 1: binding activity for human 5-HT7 receptor ([3H]SB-269970, CHO cell membrane fraction). Conditions: [3H]SB-269970, room temperature 60 minutes. The method, then:
(§1) Ki value was evaluated from dissociation constant which was calculated from saturated binding tests, and a substrate concentration, and it was used as an index for binding affinity.

Data set [5] is described as follows: Test 3-1: metabolic stability test in human hepatic microsome. It is filed as in vitro ADME. Conditions: microsome 0.1 mg/mL, test compound 0.1 μmol/L, 37° C., 30 minutes. An outline of the steps: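 Test compound at 0.1 μmol/L incubated 30 min at 37° C with human liver microsomes 0.1 mg/mL and NADPH 3.2 mmol/L in 25 mmol/L phosphate buffer, pH 7.4. Residual compound measured by LC-MS; stability (mL/min/mg protein) = −LN(residual ratio)/30/0.1.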

The target in data set [6] is T2, human 5-HT2A receptor. The experiment in a line: Test 1: binding activity for human 5-HT2A receptor ([3H]Ketanserin, CHO cell membrane fraction). Conditions: room temperature 60 minutes. The method, then: as §1
In another data set the target is human D2 receptor (Homo sapiens (Human), UniProt P14416). As to the kind of experiment: Test 1: binding activity for human D2 receptor ([3H]Spiperone, CHO cell membrane fraction). Conditions: [3H]Spiperone, room temperature 60 minutes. The method, then: as §1

SMILES strings stand for the structures.

Sequence of hERG channel (Q12809 whole entry): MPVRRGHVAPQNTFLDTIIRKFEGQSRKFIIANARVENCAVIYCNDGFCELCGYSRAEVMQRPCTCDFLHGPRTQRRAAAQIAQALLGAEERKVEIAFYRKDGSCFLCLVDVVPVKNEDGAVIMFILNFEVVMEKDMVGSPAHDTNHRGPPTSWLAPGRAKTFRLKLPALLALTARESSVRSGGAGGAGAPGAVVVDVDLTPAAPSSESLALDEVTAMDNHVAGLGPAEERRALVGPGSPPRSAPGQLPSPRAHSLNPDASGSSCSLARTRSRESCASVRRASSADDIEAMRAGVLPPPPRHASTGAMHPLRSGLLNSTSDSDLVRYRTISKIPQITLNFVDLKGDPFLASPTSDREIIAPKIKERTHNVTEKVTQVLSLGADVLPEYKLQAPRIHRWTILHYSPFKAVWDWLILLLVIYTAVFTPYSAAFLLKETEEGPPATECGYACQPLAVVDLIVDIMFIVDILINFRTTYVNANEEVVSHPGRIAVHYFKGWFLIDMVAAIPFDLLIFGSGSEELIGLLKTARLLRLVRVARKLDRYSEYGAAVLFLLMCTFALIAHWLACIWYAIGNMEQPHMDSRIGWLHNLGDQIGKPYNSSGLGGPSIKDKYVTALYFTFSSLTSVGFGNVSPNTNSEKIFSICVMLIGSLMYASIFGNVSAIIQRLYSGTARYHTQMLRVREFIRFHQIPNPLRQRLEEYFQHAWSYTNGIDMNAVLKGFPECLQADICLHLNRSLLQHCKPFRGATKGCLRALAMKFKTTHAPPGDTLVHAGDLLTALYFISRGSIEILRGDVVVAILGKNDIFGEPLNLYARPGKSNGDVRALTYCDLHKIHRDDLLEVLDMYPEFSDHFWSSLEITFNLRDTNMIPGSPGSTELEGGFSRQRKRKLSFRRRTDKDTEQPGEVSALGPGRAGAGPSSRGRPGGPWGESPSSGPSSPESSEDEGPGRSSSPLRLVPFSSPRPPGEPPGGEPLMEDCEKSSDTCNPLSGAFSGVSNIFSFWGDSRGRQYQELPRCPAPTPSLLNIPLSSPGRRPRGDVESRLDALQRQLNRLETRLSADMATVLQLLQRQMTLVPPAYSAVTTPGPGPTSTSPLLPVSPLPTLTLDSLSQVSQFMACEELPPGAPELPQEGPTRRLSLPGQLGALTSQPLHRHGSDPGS
T1 sequence (P34969 whole entry): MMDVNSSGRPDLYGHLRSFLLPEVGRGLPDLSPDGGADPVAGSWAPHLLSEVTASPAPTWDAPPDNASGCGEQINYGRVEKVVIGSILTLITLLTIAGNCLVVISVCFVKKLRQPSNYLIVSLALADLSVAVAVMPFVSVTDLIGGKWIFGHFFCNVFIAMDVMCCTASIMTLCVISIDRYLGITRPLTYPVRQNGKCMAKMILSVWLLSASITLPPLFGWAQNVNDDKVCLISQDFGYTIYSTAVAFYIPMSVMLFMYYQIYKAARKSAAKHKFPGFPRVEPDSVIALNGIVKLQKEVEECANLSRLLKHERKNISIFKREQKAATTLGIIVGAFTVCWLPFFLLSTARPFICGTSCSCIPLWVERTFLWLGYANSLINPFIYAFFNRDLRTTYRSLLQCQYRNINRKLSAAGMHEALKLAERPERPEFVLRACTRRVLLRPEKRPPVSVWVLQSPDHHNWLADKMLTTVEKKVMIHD
T2 sequence (P28223 whole entry): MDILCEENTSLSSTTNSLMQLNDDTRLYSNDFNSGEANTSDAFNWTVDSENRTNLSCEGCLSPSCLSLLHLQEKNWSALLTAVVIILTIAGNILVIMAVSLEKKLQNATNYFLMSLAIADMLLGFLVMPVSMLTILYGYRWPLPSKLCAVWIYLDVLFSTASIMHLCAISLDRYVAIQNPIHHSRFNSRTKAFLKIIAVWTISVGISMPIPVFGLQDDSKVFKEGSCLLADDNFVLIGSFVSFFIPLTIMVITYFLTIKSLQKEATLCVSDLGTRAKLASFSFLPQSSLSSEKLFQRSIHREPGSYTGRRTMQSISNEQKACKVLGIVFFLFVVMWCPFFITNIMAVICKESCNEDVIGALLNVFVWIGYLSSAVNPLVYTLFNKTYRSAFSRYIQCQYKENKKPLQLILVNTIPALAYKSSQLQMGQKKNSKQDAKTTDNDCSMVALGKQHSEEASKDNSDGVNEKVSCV
Sequence of human D2 receptor (P14416 whole entry): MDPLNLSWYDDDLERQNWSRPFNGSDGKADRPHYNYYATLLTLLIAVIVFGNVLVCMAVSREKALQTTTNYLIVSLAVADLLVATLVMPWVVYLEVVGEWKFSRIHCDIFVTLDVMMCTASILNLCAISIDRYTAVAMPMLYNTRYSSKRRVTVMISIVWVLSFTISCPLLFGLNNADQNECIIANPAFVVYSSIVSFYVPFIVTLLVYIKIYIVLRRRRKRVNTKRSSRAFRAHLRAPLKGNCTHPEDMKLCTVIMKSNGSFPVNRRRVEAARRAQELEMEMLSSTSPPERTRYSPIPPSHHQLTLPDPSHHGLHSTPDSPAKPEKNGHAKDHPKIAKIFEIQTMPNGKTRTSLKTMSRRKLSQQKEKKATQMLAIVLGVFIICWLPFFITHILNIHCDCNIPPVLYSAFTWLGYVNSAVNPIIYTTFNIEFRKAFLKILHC

As usually defined, the IC50 is the point on the concentration scale where inhibition reaches its midpoint. One may read the Ki as the equilibrium dissociation constant of an inhibitor or competing ligand from its target. A lower Ki goes with a stronger hold on the target. On to `CCN(CCN1CCC(c2noc3cc(F)ccc23)CC1)C(=O)C(O)COC` (stereo not shown) [Example 18, N-Ethyl-N-{2-[4-(6-fluoro-1,2-benzoisoxazol-3-yl)piperidin-1-yl]ethyl}-2-hydroxy-3-methoxypropanamide], for which the IC50 against human 5-HT7 receptor [1] amounted to 72 nM; against hERG channel (hERG-CHO cells, auto patch clamp) it was 4100 nM; at human 5-HT2A receptor [3], 58 nM. For the same compound, in data set [2], the Kp uu at 2 h was determined as 0.56. Also, on hERG channel (ratio), the “hERG inhibitory IC50 (nmol/L)/5-HT2A Ki (nmol/L)” value is 1637. Further, the “hERG inhibitory IC50 (nmol/L)/5-HT7 Ki (nmol/L)” value on hERG channel (ratio) came to 1097. Also, the Ki is 3.7 nM at human 5-HT7 receptor [4], 2.5 nM at human 5-HT2A receptor [6] and 198 nM at human D2 receptor. In addition, the “Metabolic stability in human hepatic microsome” value in data set [5] is recorded as less than 0.05 mL/min/mg protein.
